Assay results: patent publication US4581354A, “3-arylcarbonyl- and 3-cycloalkylcarbonyl-1-aminoalkyl-1H-indoles, compositions and use” (Sterling Drug Inc., priority 1985, dated 1986)
Structures can show the parent of a compound that is named as a salt. Where two headings read alike, the source gives them in different places.

Experiments:
bradykinin = assay: anti-bradykinin test (BRDK); assay type: in vivo; conditions: for inhibition in vivo at 50 mg/kg: 50 mg./kg. oral; for inhibition in vivo at 200 mg/kg: 200 mg./kg. oral; for inhibition in vivo at 30 mg/kg: 30 mg./kg. oral; for inhibition in vivo at 300 mg/kg: 300 mg./kg. oral
From the text: (§1) The test procedures used to determine the analgesic activities of the compounds have been described in detail in the prior art and are as follows: The acetylcholine-induced abdominal constriction test, which is a primary analgesic screening test designed to measure the ability of a test agent to suppress acetylcholine-induced abdominal constriction in mice, described by Collier et al., Brit. J. Pharmacol. Chemotherap. 32, 295 (1968); a modification of the anti-bradykinin test, which is also a primary analgesic screening procedure, described by Berkowitz et al., J. Pharmacol. Exptl. Therap. 177, 500-508 (1971), Blane et al., J. Pharm. Pharmacol. 19, 367-373 (1967), Botha et al., Eur. J. Pharmacol. 6, 312-321 (1969) and Deffenu et al., J. Pharm. Pharmacol. 18, 135 (1966); and the rat paw flexion test, described by Kuzuna et al., Chem. Pharm. Bull., 23, 1184-1191 (1975), Winter et al., J. Pharm. Exptl. Therap., 211, 678-685 (1979) and Capetola et al., J. Pharm. Exptl. Therap. 214, 16-23 (1980).
(§2) Unless noted otherwise, all data were obtained on oral administration and are expressed either as the ED50 or as the percent inhibition at a given dose level (thus 30/100 or 30% inhibition at […].)
(§3) In some instances, the compounds were retested two or more times, and ED50 values were calculated for each series of repeat tests. In such instances, each of the ED50 values so-obtained is given in a series of values, thus 6, 28, 30, 43 in the case of the species of Example 1AW in the acetylcholine-induced abdominal constriction test.

[1] = tested on: acetylcholine-induced abdominal constriction; assay: animal or person; assay type: in vivo, mice; conditions: for ED50 / inhibition in vivo at 300 mg/kg / inhibition in vivo at 100 mg/kg / inhibition in vivo at 1 mg/kg / inhibition in vivo at 3 mg/kg / inhibition in vivo at 10 mg/kg / inhibition in vivo at 30 mg/kg: Mus musculus; for inhibition in vivo at 300 mg/kg: 300 mg./kg. oral; for inhibition in vivo at 300 mg/kg / inhibition in vivo at 100 mg/kg / inhibition in vivo at 1 mg/kg / inhibition in vivo at 3 mg/kg / inhibition in vivo at 10 mg/kg / inhibition in vivo at 30 mg/kg: read-out: Ach percent inhibition; for inhibition in vivo at 1 mg/kg: 1 mg./kg. i.v.; for inhibition in vivo at 3 mg/kg: 3 mg./kg. i.v.; for inhibition in vivo at 10 mg/kg: 10 mg./kg. i.v.
rat paw flexion = rat paw flexion test (P.F.); assay type: in vivo; conditions: for inhibition in vivo at 30 mg/kg: 30 mg./kg. oral; for inhibition in vivo at 100 mg/kg: 100 mg./kg. oral
From the text: as §1, §2, §3

[2] = read-out: BRDK percent inhibition
[3] = po, read-out: P.F. percent inhibition
[4] = 100 mg./kg. oral, read-out: BRDK percent inhibition
[5] = po, 100 mg./kg. oral, Table D, formula II intermediates (Preparations)

COc1ccc(C(=O)c2cn(CCN3CCOCC3)c3ccccc23)cc1.CS(=O)(=O)O.O [Example 1A, 3-(4-methoxybenzoyl)-1-[2-(4-morpholinyl)ethyl]-1H-indole methanesulfonate monohydrate]
ED50 (bradykinin; po): 56 mg/kg
ED50 ([1]; po, read-out: Ach ED50): 73 mg/kg

O=C(c1ccccc1)c1cn(CCN2CCOCC2)c2ccccc12 [Example 1AP]
inhibition in vivo at 50 mg/kg (bradykinin; [2]): 0%
inhibition in vivo at 200 mg/kg (bradykinin; [2]): 33%
inhibition in vivo at 400 mg/kg (bradykinin; 400 mg./kg. oral, read-out: BRDK percent inhibition): 60%
ED50 ([1]; po, read-out: Ach ED50): 42 mg/kg

Cc1c(C(=O)c2ccc(Cl)cc2)c2ccccc2n1CCN1CCOCC1 [Example 1AQ]
ED50 ([1]; iv, read-out: Ach ED50): 17 mg/kg
inhibition in vivo at 300 mg/kg ([1]; po): 53%
inhibition in vivo at 10 mg/kg (rat paw flexion; po, 10 mg./kg. oral, read-out: P.F. percent inhibition): 0%
inhibition in vivo at 30 mg/kg (rat paw flexion; [3]): 12%
inhibition in vivo at 100 mg/kg (rat paw flexion; [3]): 12%

Cc1c(C(=O)c2cccs2)c2ccccc2n1CCN1CCOCC1 [Example 1AT]
inhibition in vivo at 50 mg/kg (bradykinin; [2]): 0%
inhibition in vivo at 200 mg/kg (bradykinin; [2]): 0%
ED50 ([1]; po, read-out: Ach ED50): 30 mg/kg

COc1ccc2c(C(=O)c3ccc(Cl)cc3)c(C)n(CCN3CCOCC3)c2c1 [Example 1AU]
inhibition in vivo at 50 mg/kg (bradykinin; [2]): 0%
ED50 ([1]; po, read-out: Ach ED50): 42 mg/kg

COc1ccc2c(C(=O)c3cccs3)c(C)n(CCN3CCOCC3)c2c1 [Example 1AV]
inhibition in vivo at 50 mg/kg (bradykinin; [2]): 0%
ED50 ([1]; po, read-out: Ach ED50): 38 mg/kg

Cc1c(C(=O)c2ccccc2)c2ccccc2n1C(C)CN1CCOCC1 (stereo not drawn) [Example 1AW]
ED50 (bradykinin; po): 229 mg/kg
ED50 (rat paw flexion; oral): 26 mg/kg

Cc1c(C(=O)c2ccccc2)c2ccccc2n1CC(C)N1CCOCC1 (stereo not drawn) [Example 1AX]
inhibition in vivo at 212 mg/kg (bradykinin; 212 mg./kg. oral, read-out: BRDK percent inhibition): 0%
ED50 ([1]; po, read-out: Ach ED50): 45 mg/kg

COc1ccc(C(=O)c2c(C)n(CCN3CCOCC3)c3ccccc23)cc1 [Example 1B, 2-methyl-3-(4-methoxybenzoyl)-1-[2-(4-morpholinyl)ethyl]-1H-indole]
ED50 (bradykinin; iv): 8.1 mg/kg
ED50 ([1]; iv, read-out: Ach ED50): 6.7 mg/kg

COc1ccc(C(=O)c2c(C)n(CCN3CCOCC3)c3ccccc23)c2ccccc12 [Example 1BI]
inhibition in vivo at 6 mg/kg (bradykinin; 6 mg./kg. oral, read-out: BRDK percent inhibition): 0%
ED50 ([1]; iv, read-out: Ach ED50): 0.69 mg/kg
inhibition in vivo at 300 mg/kg ([1]; po): 13%
inhibition in vivo at 100 mg/kg ([1]; sc, 100 mg./kg. s.c.): 27%

Cc1c(C(=O)c2cc3ccccc3o2)c2ccccc2n1CCN1CCOCC1 [Example 1S]
ED50 (bradykinin; po): 162 mg/kg
inhibition in vivo at 1 mg/kg ([1]; iv): 10%
inhibition in vivo at 3 mg/kg ([1]; iv): 20%
inhibition in vivo at 10 mg/kg ([1]; iv): 100%
ED50 ([1]; po, read-out: Ach ED50): 40 mg/kg

Cc1c(C(=O)c2ccccc2F)c2ccccc2n1C(C)CN1CCOCC1 (stereo not drawn) [Example 2C]
inhibition in vivo at 30 mg/kg (bradykinin; [2]): 0%
inhibition in vivo at 300 mg/kg (bradykinin; [2]): 60%
ED50 ([1]; iv, read-out: Ach ED50): 3.3 mg/kg
ED50 ([1]; po, read-out: Ach ED50): 19 mg/kg

COc1ccc(C(=O)c2c(C)n(CCN3CCCC(O)C3)c3ccccc23)cc1 (stereo not drawn) [Example 3B, 1-[2-(3-hydroxy-1-piperidinyl)ethyl]-2-methyl-3-(4-methoxybenzoyl)-1H-indole]
ED50 ([1]; iv, read-out: Ach ED50): 3 mg/kg
ED50 ([1]; po, read-out: Ach ED50): 26.5 mg/kg
ED50 ([1]; sc, read-out: Ach ED50): 10 mg/kg
inhibition in vivo at 30 mg/kg (rat paw flexion; [3]): 50%
inhibition in vivo at 100 mg/kg (rat paw flexion; [3]): 86%
inhibition in vivo at 300 mg/kg (rat paw flexion; po, 300 mg./kg. oral, read-out: P.F. percent inhibition): 86%

Cc1c(C(=O)c2cccc(N)c2)c2ccccc2n1CCN1CCOCC1 [Example 4A, 2-methyl-3-(3-aminobenzoyl)-1-[2-(4-morpholinyl)ethyl]-1H-indole]
ED50 (bradykinin; po): 53 mg/kg
ED50 ([1]; po, read-out: Ach ED50): 16 mg/kg

CC(=O)Nc1ccc(C(=O)c2c(C)n(CCN3CCOCC3)c3ccccc23)cc1 [Example 5A, 2-methyl-3-(4-acetylaminobenzoyl)-1-[2-(4-morpholinyl)ethyl]-1H-indole]
inhibition in vivo at 300 mg/kg (bradykinin; [2]): 0%
inhibition in vivo at 1 mg/kg ([1]; iv): 20%
inhibition in vivo at 3 mg/kg ([1]; iv): 29%
inhibition in vivo at 10 mg/kg ([1]; iv): 30%
ED50 ([1]; po, read-out: Ach ED50): 31 mg/kg

Cc1c(C(=O)c2ccc(NC(=O)C(F)(F)F)cc2)c2ccccc2n1CCN1CCOCC1 [Example 5C, 2-methyl-3-[4-(N-trifluoroacetylamino)benzoyl]-1-[2-(4-morpholinyl)ethyl]-1H-indole]
inhibition in vivo at 30 mg/kg (bradykinin; [2]): 20%
inhibition in vivo at 100 mg/kg (bradykinin; [4]): 60%
inhibition in vivo at 300 mg/kg (bradykinin; [2]): 60%
ED50 ([1]; po, read-out: Ach ED50): 19 mg/kg

Cc1c(C(=O)c2ccc(NC(=O)c3ccccc3)cc2)c2ccccc2n1CCN1CCOCC1 [Example 5D]
inhibition in vivo at 200 mg/kg (bradykinin; [2]): 20%
inhibition in vivo at 3 mg/kg ([1]; iv): 57%
ED50 ([1]; iv, read-out: Ach ED50): 29.1 mg/kg
ED50 ([1]; po, read-out: Ach ED50): 84 mg/kg

Cc1c(C(=O)c2ccc(O)cc2)c2ccccc2n1CCN1CCOCC1.Cl [Example 6, 2-methyl-3-(4-hydroxybenzoyl)-1-[2-(4-morpholinyl)ethyl]-1H-indole hydrochloride]
inhibition in vivo at 100 mg/kg (bradykinin; [4]): 0%
inhibition in vivo at 300 mg/kg (bradykinin; [2]): 0%
inhibition in vivo at 10 mg/kg ([1]; iv): 0%
inhibition in vivo at 30 mg/kg ([1]; iv, 30 mg./kg. i.v.): 0%
ED50 ([1]; po, read-out: Ach ED50): 83 mg/kg
inhibition in vivo at 30 mg/kg ([1]; sc, 30 mg./kg. s.c.): 13%

Cc1c(C(=O)c2ccc(CN)cc2)c2ccccc2n1CCN1CCOCC1.Cl.Cl [Example 7, 2-methyl-3-(4-aminomethylbenzoyl)-1-[2-(4-morpholinyl)ethyl]-1H-indole dihydrochloride]
inhibition in vivo at 300 mg/kg (bradykinin; [2]): 0%
ED50 ([1]; po, read-out: Ach ED50): 40 mg/kg

CNc1ccc(C(=O)c2c(C)n(CCN3CCOCC3)c3ccccc23)cc1 [Example 8A, 2-methyl-3-(4-methylaminobenzoyl)-1-[2-(4-morpholinyl)-ethyl]-1H-indole dihydrochloride hemihydrate]
ED50 ([1]; po, read-out: Ach ED50): 32 mg/kg
inhibition in vivo at 30 mg/kg (rat paw flexion; [3]): 62%

Cc1c(C(=O)c2ccc(CNC(=N)N)cc2)c2ccccc2n1CCN1CCOCC1 [Example 17, 2-methyl-3-(4-guanidinylmethylbenzoyl)-1-[2-(4-morpholinyl)ethyl]-1H-indole sulfate (2:1)]
inhibition in vivo at 100 mg/kg (bradykinin; sc, 100 mg./kg. s.c., read-out: BRDK percent inhibition): 33%
inhibition in vivo at 30 mg/kg ([1]; po, 30 mg./kg. oral): 7%
ED50 ([1]; sc, read-out: Ach ED50): 6.6 mg/kg

COc1ccc(C(=O)c2c(C)n(CC(O)CN)c3ccccc23)cc1 (stereo not drawn) [Example 32, 1-(3-amino-2-hydroxy-1-propyl)-2-methyl-3-(4-methoxybenzoyl)-1H-indole]
ED50 ([1]; po, read-out: Ach ED50): 85 mg/kg

Cc1[nH]c2ccccc2c1C(=O)c1ccccc1-c1ccccc1 [Preparation 1AK]
inhibition in vivo at 100 mg/kg [1, 5]: 20%

Cc1[nH]c2ccccc2c1C(=O)c1ccc(-c2ccccc2)cc1 [Preparation 1AL]
inhibition in vivo at 100 mg/kg [1, 5]: 20%

COc1cc(OC)cc(C(=O)c2c(C)[nH]c3ccccc23)c1 [Preparation 1AO]
inhibition in vivo at 100 mg/kg [1, 5]: 40%

COc1ccc(C(=O)c2c(C)[nH]c3ccc(F)cc23)cc1 [Preparation 1F, 2-methyl-5-fluoro-3-(4-methoxybenzoyl)indole]
inhibition in vivo at 100 mg/kg [1, 5]: 0%

CS(=O)(=O)O.Cc1cc2ccccc2n1C(C)CN1CCOCC1.O (stereo not drawn) [Preparation 5A, 2-methyl-1-[1-methyl-2-(4-morpholinyl)ethyl]-1H-indole methanesulfonate hydrate]
inhibition in acetylcholine-induced abdominal constriction test ([1]; 300 mg./kg. (p.o.), Preparations): 40%

Cc1cc2cc(F)ccc2n1C(C)CN(C)C (stereo not drawn) [Preparation 8, 5-fluoro-2-methyl-1-(1-methyl-2-dimethylaminoethyl)-1H-indole]
ED50 ([1]; po, Preparations, read-out: ED50 in acetylcholine-induced abdominal constriction test): 25 mg/kg
